Laboratory results from patent US9469613B2, “(N-(cyanomethyl)-4-(2-(4-morpholinophenylamino)pyrimidin-4-yl)benzamide” (Gilead Sciences, Inc., priority 2014, dated 2016).
Structures can show the parent of a compound that is named as a salt. Blank lines part the entries; values can stand above or below the molecule they belong to.

Tests used:
[1] = Solid form hygroscopicity and stability; type: physicochemical; conditions: conditions suitable for manufacturing and/or storage
Method: Dynamic Vapor Sorption: The hygroscopicity of N-(cyanomethyl)-4-(2-(4-morpholinophenylamino)pyrimidin-4-yl)benzamide dihydrochloride monohydrate Form II was evaluated at room temperature using a dynamic vapor sorption (DVS) instrument (TGA Q5000 TA Instruments, New Castle, Del.). Water adsorption and desorption were studied as a function of relative humidity (RH) over the range of 0 to 90% at room temperature. The humidity in the chamber was increased from the initial level 50% RH) to 60% RH and held until the solid and atmosphere reached equilibration. The equilibrium test was continued until passed or expired after 10 hours. At this point, RH was raised 10% higher and the process was repeated until 90% RH was reached and equilibrated. During this period, the water sorption was monitored. For desorption, the relative humidity was decreased in a similar manner to measure a full sorption/desorption cycle. All experiments were operated in dm/dt mode (mass variation over time) to determine the equilibration endpoint. Approximately 4 mg of solid CYT-0387 was used. Data analysis was conducted using Universal Analysis 2000 Version 4.7A (TA Instruments, New Castle, Del., USA).

[2] = Relative bioavailability of CYT-0387 tablet vs capsule, food and omeprazole effect, healthy subjects; type: in vivo, human; conditions: from 100 to 800 mg
Method: CYT-0387 is a selective small molecule inhibitor of Janus kinase 1 and 2 (JAK1/JAK2), and is currently under investigation to treat myelofibrosis. In a Phase 1/2 study in myelofibrosis patients, 300 mg CYT-0387 capsule once daily was selected as Phase 3 dose based on a favorable benefit:risk profile. An immediate release tablet formulation (CYT-0387 tablet) was developed for further clinical evaluation. The relative bioavailability of CYT-0387 tablet vs capsule was evaluated in this study to identify Phase 3 dose of CYT-0387 tablet. CYT-0387 tablet (100 to 300 mg) vs capsule (300 mg) pharmacokinetics (PK) after a single dose was evaluated in healthy subjects. CYT-0387 tablet PK at supratherapeutic doses (400 and 800 mg), under fed and fasted conditions, and with an acid reducing agent (i.e., omeprazole) was also evaluated. Intensive PK sampling occurred up to 36 hours postdose. Safety was monitored throughout the study. A parametric analysis of variance (ANOVA) using a mixed-effects model was used to fit to the natural logarithmic transformation of PK parameters (AUC and Cmax). The 90% confidence intervals were constructed for the ratio of geometric means of CYT-0387 tablet PK at 100, 150, 200 and 300 mg vs CYT-0387 capsule 300 mg, using equivalence bounds of 70% to 143% for AUC and Cmax. A similar approach was used to assess the effect of food and omeprazole.

[3] = Mass balance/recovery, metabolite profile, pharmacokinetics and safety of radiolabeled CYT-0387; type: in vivo, human
Method: CYT-0387 is a selective small molecule inhibitor of Janus kinase 1 and 2 (JAK1/JAK2) currently under investigation to treat myelofibrosis. This study evaluated the mass balance/recovery, metabolite profile, pharmacokinetics, and safety of radiolabeled CYT-0387 in humans.
Six healthy individuals (subjects) received a single oral dose of 200 mg CYT-0387 containing ˜100 μCi of [^14C]-CYT-0387. Blood samples were collected up to 21 days or until plasma radioactivity in 2 consecutive samples was below detection limit or urine and feces sampling was discontinued. Urine/feces samples were collected up to 21 days or until ≧90% administered dose was recovered in feces and urine and radioactivity in 2 consecutive sampling intervals were ≦1% administered dose. Plasma concentrations of CYT-0387 and metabolites were measured using LC-MS/MS and total radioactivity assessed by liquid scintillation counting. Metabolite profiling was performed in select urine, feces, and plasma samples. Safety assessments were performed throughout the study.

[4] = test system: phospho-SMAD1/5/8 in HepG2 cells; assay: BMP6-mediated phospho-SMAD1/5/8 levels in HepG2 cells (immunoblot); type: cell-based; conditions: for phospho-SMAD1/5/8 levels (normalized percentage): HepG2, 10 ng/mL BMP6 30 minutes, 100% = vehicle
Method: HepG2 cells were preincubated for 2 hours with increasing concentrations of CYT-0387 (0.02 to 10 μM CYT387) in the presence of 1% FBS and then stimulated for 30 minutes with 10 ng/mL of BMP6. Protein was extracted from the lysed cells and analyzed using immunoblot analysis with the antibodies specific for phospho-SMAD1 (Ser463/465), phospho-SMAD5 (Ser463/465) and phospho-SMAD8 (Ser465/467) and β-actin. Raw phospho-SMAD1/5/8 levels were quantified using densitometry software (Image Studio) and normalized to β-actin levels. The percentage of phospho-SMAD1/5/8 levels was calculated (100% is equal to phospho-SMAD1/5/8 levels in vehicle treated cells stimulated with 10 ng/mL of BMP6) and summarized in Table 9.

ALK2 (Acvr1) = ALK2 (Acvr1) (Homo sapiens (Human), UniProt Q04771); assay: Biochemical binding assay (DiscoveRx)
Chain of ALK2 (Acvr1) (Q04771 21-509): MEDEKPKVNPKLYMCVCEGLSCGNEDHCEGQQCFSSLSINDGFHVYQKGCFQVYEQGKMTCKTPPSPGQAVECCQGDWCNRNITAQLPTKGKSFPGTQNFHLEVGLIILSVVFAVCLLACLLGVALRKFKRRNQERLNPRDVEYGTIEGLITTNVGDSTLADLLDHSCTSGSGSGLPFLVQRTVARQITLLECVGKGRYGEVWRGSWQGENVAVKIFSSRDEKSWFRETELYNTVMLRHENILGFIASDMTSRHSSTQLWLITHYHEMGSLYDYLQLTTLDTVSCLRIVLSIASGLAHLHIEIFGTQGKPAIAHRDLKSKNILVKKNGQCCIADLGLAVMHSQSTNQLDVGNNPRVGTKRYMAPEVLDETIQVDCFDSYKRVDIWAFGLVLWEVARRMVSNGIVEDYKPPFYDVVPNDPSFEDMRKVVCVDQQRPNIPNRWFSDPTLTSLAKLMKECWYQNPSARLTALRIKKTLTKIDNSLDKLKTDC
Method: (§1) In addition, biochemical binding assays (DiscoveRx) and in vitro enzyme inhibition assays (LanthaScreen, Life Technologies) were conducted to determine the binding affinity and inhibition activities of CYT-0387 to Type-I BMPR-kinases (ALK2, ALK3, and ALK6) were conducted. Transforming growth factor beta receptor 1 (TGFBR1, ALK5) was used as a control to determine the selectivity to Type-I BMPR-kinases.

ALK3 (BMPR1a) [5] = biological target: T1, ALK3 (BMPR1a) (Homo sapiens (Human), UniProt P36894); assay: Biochemical binding assay (DiscoveRx)
T1 sequence (P36894 24-532): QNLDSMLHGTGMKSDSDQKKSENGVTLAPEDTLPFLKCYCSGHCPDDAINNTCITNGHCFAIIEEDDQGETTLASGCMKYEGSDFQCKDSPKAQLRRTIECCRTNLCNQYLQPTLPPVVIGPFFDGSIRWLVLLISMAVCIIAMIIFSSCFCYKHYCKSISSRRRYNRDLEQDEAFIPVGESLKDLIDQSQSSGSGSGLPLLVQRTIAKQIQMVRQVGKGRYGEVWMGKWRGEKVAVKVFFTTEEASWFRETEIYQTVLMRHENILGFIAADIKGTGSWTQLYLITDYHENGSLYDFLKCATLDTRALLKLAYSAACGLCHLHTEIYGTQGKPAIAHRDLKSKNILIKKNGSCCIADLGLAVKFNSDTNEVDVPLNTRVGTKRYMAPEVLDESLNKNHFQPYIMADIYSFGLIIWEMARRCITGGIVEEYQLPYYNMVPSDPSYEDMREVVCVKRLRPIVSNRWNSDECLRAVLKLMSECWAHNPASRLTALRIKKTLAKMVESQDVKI
Method: as §1

ALK6 (BMPR1B) = ALK6 (BMPR1B) (Homo sapiens (Human), UniProt O00238); assay: Biochemical binding assay (DiscoveRx)
Chain of ALK6 (BMPR1B) (O00238 14-502): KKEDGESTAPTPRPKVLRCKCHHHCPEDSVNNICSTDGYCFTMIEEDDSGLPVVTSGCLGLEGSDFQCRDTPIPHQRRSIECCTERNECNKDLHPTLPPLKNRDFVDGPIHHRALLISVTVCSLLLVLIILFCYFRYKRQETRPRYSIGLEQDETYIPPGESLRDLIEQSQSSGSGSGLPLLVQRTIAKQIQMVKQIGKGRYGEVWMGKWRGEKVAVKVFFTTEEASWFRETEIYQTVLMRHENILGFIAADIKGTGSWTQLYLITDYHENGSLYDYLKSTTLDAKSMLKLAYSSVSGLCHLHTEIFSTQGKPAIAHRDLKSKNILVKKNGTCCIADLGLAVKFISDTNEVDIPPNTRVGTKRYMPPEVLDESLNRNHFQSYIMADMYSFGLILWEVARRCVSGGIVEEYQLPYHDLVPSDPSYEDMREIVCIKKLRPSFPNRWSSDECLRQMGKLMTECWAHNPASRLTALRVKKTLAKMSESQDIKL
Method: as §1

TGFBR1 [6] = biological target: T2, TGFBR1 (Homo sapiens (Human), UniProt P36897); assay: Biochemical binding assay (DiscoveRx)
T2 sequence (P36897 34-503): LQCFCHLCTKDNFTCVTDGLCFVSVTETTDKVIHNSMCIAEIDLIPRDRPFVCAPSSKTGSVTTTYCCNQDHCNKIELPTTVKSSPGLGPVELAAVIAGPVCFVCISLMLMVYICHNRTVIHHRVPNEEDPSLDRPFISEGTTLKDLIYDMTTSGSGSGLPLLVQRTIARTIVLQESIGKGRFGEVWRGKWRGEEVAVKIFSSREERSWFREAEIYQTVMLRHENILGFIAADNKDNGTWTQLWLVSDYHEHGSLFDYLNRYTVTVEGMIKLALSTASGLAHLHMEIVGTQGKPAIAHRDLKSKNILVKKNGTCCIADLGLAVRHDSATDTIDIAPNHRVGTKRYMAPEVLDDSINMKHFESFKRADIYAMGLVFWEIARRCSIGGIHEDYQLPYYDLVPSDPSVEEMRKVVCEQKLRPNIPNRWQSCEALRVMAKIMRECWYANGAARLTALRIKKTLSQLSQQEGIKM

ALK3 (BMPR1a) [7] = biological target: T1, ALK3 (BMPR1a); assay: In vitro enzyme inhibition assay (LanthaScreen); type: biochemical; conditions: n = 3
Method: as §1

TGFBR1 [8] = biological target: T2, TGFBR1; assay: In vitro enzyme inhibition assay (LanthaScreen); type: biochemical; conditions: TGFBR1, n = 3
[9] = test system: hyperproliferative diseases (PV, ET, PMF), myelofibrosis; conditions: cited from earlier work
[10] = single oral dose 200 mg, healthy subjects

- thermodynamic stability of the dihydrochloride salt form [1]: thermodynamically stable form
Compound: N#CCNC(=O)c1ccc(-c2ccnc(Nc3ccc(N4CCOCC4)cc3)n2)cc1 [CYT-0387 Form II, N-(cyanomethyl)-4-(2-(4-morpholinophenylamino)pyrimidin-4-yl)benzamide dihydrochloride monohydrate Form II]

- dose proportionality of plasma exposures [2]: less-than-dose-proportionally
- Kd (ALK2 (Acvr1)): 25 nM
- Kd (ALK3 (BMPR1a) [5]): 1000 nM
- Kd (ALK6 (BMPR1B)): 19 nM
- Kd (TGFBR1 [6]): 670 nM
- IC50 (ALK3 (BMPR1a) [7]): 405 nM
- IC50 (TGFBR1 [8]): 205 nM
Compound: N#CCNC(=O)c1ccc(-c2ccnc(Nc3ccc(N4CCOCC4)cc3)n2)cc1 [CYT-0387, N-(cyanomethyl)-4-(2-(4-morpholinophenylamino)pyrimidin-4-yl)benzamide]
- excreted in feces ([3]; feces): 12.6 % of the dose
- recovery of radioactivity in feces ([3]; feces): 69.3%
- overall recovery of radioactivity ([3]; feces and urine): 96.7%
- share of circulating radioactivity ([3]; plasma): 17.3%
- time of maximum concentration of drug-derived radioactivity in plasma ([3]; postdose, single oral 200 mg [14C]-CYT-0387): 2.5 h
- most frequently reported AEs [3, 10]: dizziness, headache, and nausea
- serious or severe adverse events [3, 10]: No Grade 3 or 4 AEs, SAEs, or AEs leading to study discontinuation
- tolerability [3, 10]: well tolerated
- recovery of radioactivity in urine ([3]; urine): 27.5%
- phospho-SMAD1/5/8 levels (normalized percentage) ([4]; 0.020 μM): 83%
- phospho-SMAD1/5/8 levels (normalized percentage) ([4]; 0.039 μM): 80%
- phospho-SMAD1/5/8 levels (normalized percentage) ([4]; 0.078 μM): 91%
- phospho-SMAD1/5/8 levels (normalized percentage) ([4]; 0.156 μM): 96%
- phospho-SMAD1/5/8 levels (normalized percentage) ([4]; 0.313 μM): 88%
- phospho-SMAD1/5/8 levels (normalized percentage) ([4]; 0.625 μM): 91%
- phospho-SMAD1/5/8 levels (normalized percentage) ([4]; 1.25 μM): 65%
- phospho-SMAD1/5/8 levels (normalized percentage) ([4]; 2.5 μM): 52%
- phospho-SMAD1/5/8 levels (normalized percentage) ([4]; 5.0 μM): 40%
- phospho-SMAD1/5/8 levels (normalized percentage) ([4]; 10.0 μM): 31%
- effect on BMP6-mediated phospho-SMAD1/5/8 levels ([4]; 0.02 to 10 μM, HepG2): dose-dependent inhibition
- efficacy in treating hyperproliferative diseases (PV, ET, PMF) ([9]; clinical studies): effective
- anemia and/or spleen responses ([9]; patients having myelofibrosis): improvement
